# Values of other authors in article PMC2895553 (Journal of the American Chemical Society, 2010).
# Test system: αvβ3 integrin
substance,measurement,value
cyclo(-Arg-Gly-Asp-DPhe-(Me)Val-] [Cilengitide],activity as inhibitor for the αvβ3 integrin,0.5 nM
